From ChEMBL document CHEMBL4428067, “Drug Discovery against Psoriasis: Identification of a New Potent FMS-like Tyrosine Kinase 3 (FLT3) Inhibitor, 1-(4-((1H-Pyrazolo[3,4-d]pyrimidin-4-yl)oxy)-3-fluorophenyl)-3-(5-(tert-butyl)isoxazol-3-yl)urea, That Showed Potent Activity in a Psoriatic Animal Model” (J Med Chem, 2016)
pIC50: −log10 of the molar value.

target: T1, Receptor-type tyrosine-protein kinase FLT3 (Homo sapiens, UniProt P36888); test: Inhibition of recombinant human N-terminal GST-tagged FLT3 (564 to end residues) expressed by baculovirus in Sf21 insect cells measured after 10 mins in presence of [gamma-33P]ATP by scintillation counter method
T1 sequence (P36888 whole entry): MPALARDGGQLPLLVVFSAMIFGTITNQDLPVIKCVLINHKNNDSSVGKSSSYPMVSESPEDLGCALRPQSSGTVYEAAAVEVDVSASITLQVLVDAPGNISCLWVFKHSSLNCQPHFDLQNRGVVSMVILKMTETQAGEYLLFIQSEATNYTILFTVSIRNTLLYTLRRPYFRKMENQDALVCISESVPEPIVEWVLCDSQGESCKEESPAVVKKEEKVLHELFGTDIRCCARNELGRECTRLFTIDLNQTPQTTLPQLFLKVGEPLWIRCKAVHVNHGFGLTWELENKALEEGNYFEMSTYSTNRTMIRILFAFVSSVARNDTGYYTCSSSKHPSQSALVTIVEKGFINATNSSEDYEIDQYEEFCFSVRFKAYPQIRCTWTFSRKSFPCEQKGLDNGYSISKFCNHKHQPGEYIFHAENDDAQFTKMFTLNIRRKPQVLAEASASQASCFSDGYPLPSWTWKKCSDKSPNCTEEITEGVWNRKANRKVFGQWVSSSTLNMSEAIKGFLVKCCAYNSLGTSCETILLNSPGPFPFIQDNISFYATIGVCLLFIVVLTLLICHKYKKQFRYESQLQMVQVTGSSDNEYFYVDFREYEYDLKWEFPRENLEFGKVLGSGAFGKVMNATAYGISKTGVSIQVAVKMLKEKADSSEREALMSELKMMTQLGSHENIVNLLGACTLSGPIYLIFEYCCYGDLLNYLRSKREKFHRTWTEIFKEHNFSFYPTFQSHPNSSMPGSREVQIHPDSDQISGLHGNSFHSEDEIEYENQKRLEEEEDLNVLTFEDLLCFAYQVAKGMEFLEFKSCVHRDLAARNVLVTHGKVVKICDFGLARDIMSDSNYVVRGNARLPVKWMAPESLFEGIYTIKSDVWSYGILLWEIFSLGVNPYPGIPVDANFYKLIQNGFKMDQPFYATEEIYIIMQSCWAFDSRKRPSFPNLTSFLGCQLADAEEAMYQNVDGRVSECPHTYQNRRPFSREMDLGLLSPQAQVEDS

pIC50 | SMILES
7.96 | CC(C)(C)c1cc(NC(=O)Nc2ccc(Oc3ncnc4[nH]ncc34)cc2)no1
6.18 | Cc1cc(Oc2ncnc3[nH]ncc23)ccc1NC(=O)Nc1cc(C(C)(C)C)on1
7.18 | Cn1nc(C(C)(C)C)cc1NC(=O)Nc1ccc(Oc2ncnc3[nH]ncc23)c(F)c1
6.66 | CC(C)n1ncc2c(Oc3ccc(NC(=O)Nc4cc(C(C)(C)C)on4)cc3)ncnc21
7.21 | Cn1nc(C(C)(C)C)cc1NC(=O)Nc1ccc(Oc2ncnc3[nH]ncc23)cc1
7.25 | CC(C)(C)c1cc(NC(=O)Nc2ccc(Oc3ncnc4[nH]ncc34)c(F)c2)n(-c2ccccc2)n1
7.14 | O=C(Nc1ccc(Oc2ncnc3[nH]ncc23)cc1)Nc1nc(-c2ccccc2)cs1
7.10 | CN(C)CCCn1ncc2c(Oc3ccc(NC(=O)Nc4cc(C(C)(C)C)on4)cc3)ncnc21
6.35 | CC(C)(C)c1cc(NC(=O)Nc2ccc(Oc3ncnc4c3cnn4CCN3CCOCC3)cc2)no1
7.38 | CC(C)(C)c1cc(NC(=O)Nc2ccc(Oc3ncnc4[nH]ncc34)c(F)c2)n(-c2ccc(F)cc2)n1
7.44 | Cn1nc(C(F)(F)F)cc1NC(=O)Nc1ccc(Oc2ncnc3[nH]ncc23)c(F)c1
8.10 | CC(C)(C)c1csc(NC(=O)Nc2ccc(Oc3ncnc4[nH]ncc34)cc2)n1
8.22 | Cc1cc(NC(=O)Nc2cc(C(C)(C)C)on2)ccc1Oc1ncnc2[nH]ncc12
8.00 | CC(C)(C)c1cc(NC(=O)Nc2ccc(Oc3ncnc4[nH]ncc34)cc2)n(C(=O)O)n1
7.57 | Cn1ncc2c(Oc3ccc(NC(=O)Nc4cc(C(C)(C)C)on4)cc3)ncnc21
7.42 | Cn1nc(C(F)(F)F)cc1NC(=O)Nc1ccc(Oc2ncnc3[nH]ncc23)cc1
8.22 | CC(C)(C)c1cc(NC(=O)Nc2ccc(Oc3ncnc4[nH]ncc34)cc2F)no1
8.70 | CC(C)(C)c1cc(NC(=O)Nc2ccc(Oc3ncnc4[nH]ncc34)c(Cl)c2)no1
7.09 | CC(C)c1cc(NC(=O)Nc2ccc(Oc3ncnc4[nH]ncc34)cc2)n(C)n1
6.53 | O=C(Nc1ccc(Oc2ncnc3[nH]ncc23)cc1)Nc1nc2ccccc2s1
7.28 | CC(C)(C)c1cc(NC(=O)Nc2ccc(Oc3ncnc4[nH]ncc34)c(F)c2)n(C2CCCC2)n1
7.30 | CC(C)(C)c1cc(NC(=O)Nc2ccc(Oc3ncnc4[nH]ncc34)cc2)n(-c2ccccc2)n1
8.10 | CC(C)(C)c1cc(NC(=O)Nc2ccc(Oc3ncnc4[nH]ncc34)cc2)on1
7.28 | CC(C)(C)c1cc(NC(=O)Nc2ccc(Oc3ncnc4[nH]ncc34)cc2)n(C2CCCC2)n1
7.55 | O=C(Nc1ccc(Oc2ncnc3[nH]ncc23)cc1)Nc1cc(C(F)(F)F)on1
